From PubChem BioAssay AID328 (DTP/NCI, 2004)
Several values for one entry are separate records, joined by “and”; a condition that tells them apart may be missing. Equal entries are not always repeated. Inconclusive results and toxic doses are left out. Rule for the calls: active = survival T/C of 150% or more; inactive = T/C below 125% in these data. Non-standard residues stand in square brackets, D forms with d. Residues, ends and D or L forms follow the SMILES beside them. ξ: configuration not given here. *: point of attachment. Nphe = O=C(O)CNCc1ccccc1; ξF = NC(Cc1ccccc1)C(=O)O; Ms = CS(=O)(=O)*

System: BDF1 mice, P388 leukemia ip, median survival T/C
Assay: NCI In Vivo Anticancer Drug Screen. Data for tumor model P388 Leukemia (intraperitoneal) in B6D2F1 (BDF1) mice
Conditions: endpoint: median survival time, higher = longer survival
In short: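 T/C = treated-group survival ÷ vehicle-control survival; tumour transplanted into mice before dosing.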

[1] = dose: 50.0 mg/kg/injection, schedule: Q04DX003 (ip), vehicle: saline
[2] = dose: 100.0 mg/kg/injection, schedule: Q04DX003 (ip), vehicle: saline
[3] = dose: 100.0 mg/kg/injection, schedule: Q01DX009 (ip), vehicle: other
[4] = dose: 200.0 mg/kg/injection, schedule: Q01DX009 (ip), vehicle: other
[5] = dose: 400.0 mg/kg/injection, schedule: Q01DX009 (ip), vehicle: other
[6] = dose: 25.0 mg/kg/injection, schedule: Q01DX009 (ip), vehicle: other
[7] = dose: 50.0 mg/kg/injection, schedule: Q01DX009 (ip), vehicle: other
[8] = dose: 100.0 mg/kg/injection, schedule: Q04DX003 (ip), vehicle: saline with Tween-80

Measured: T/C

Nc1ncn(C2CC(O)C(CO)O2)c(=O)n1 (centres undefined)
active: dose: 0.1 mg/kg/injection, schedule: Q01DX009 (ip), vehicle: Klucel (hydroxypropylcellulose) (HPC) 190 % of control | dose: 0.2 mg/kg/injection, schedule: Q01DX009 (ip), vehicle: Klucel (hydroxypropylcellulose) (HPC) 160 % of control and 206 % of control | dose: 0.4 mg/kg/injection, schedule: Q01DX009 (ip), vehicle: Klucel (hydroxypropylcellulose) (HPC) 175 % of control and 190 % of control | dose: 0.4 mg/kg/injection, schedule: Q01DX009 (ip), vehicle: saline 150 % of control | dose: 0.8 mg/kg/injection, schedule: Q01DX009 (ip), vehicle: saline 188 % of control | dose: 3.12 mg/kg/injection, schedule: Q04DX003 (ip), vehicle: saline 235 % of control | dose: 6.25 mg/kg/injection, schedule: Q04DX003 (ip), vehicle: saline 265 % of control | dose: 12.5 mg/kg/injection, schedule: Q04DX003 (ip), vehicle: saline 160 % of control
109 % of control and 212 % of control: dose: 0.8 mg/kg/injection, schedule: Q01DX009 (ip), vehicle: Klucel (hydroxypropylcellulose) (HPC)
inactive: dose: 0.03 mg/kg/injection, schedule: Q01DX009 (ip), vehicle: saline 119 % of control | dose: 0.05 mg/kg/injection, schedule: Q01DX009 (ip), vehicle: saline 121 % of control | dose: 1.56 mg/kg/injection, schedule: Q01DX009 (ip), vehicle: saline 106 % of control | dose: 3.12 mg/kg/injection, schedule: Q01DX009 (ip), vehicle: saline 94 % of control | dose: 6.25 mg/kg/injection, schedule: Q01DX009 (ip), vehicle: saline 90 % of control

O=C(O)C1OC(n2cc(F)c(=O)[nH]c2=O)CC1O (centres undefined)
inactive: [1] 108 % of control | [2] 116 % of control | dose: 200.0 mg/kg/injection, schedule: Q04DX003 (ip), vehicle: saline 106 % of control | dose: 300.0 mg/kg/injection, schedule: Q04DX003 (ip), vehicle: saline 108 % of control

Cc1cc(C)cc(NCCC#N)c1
inactive: [3] 115 % of control | [4] 115 % of control | [5] 105 % of control

O=C=Nc1ccc(Cl)c(Cl)c1 (tested in a mixture with another compound)
inactive: dose: 50.0 mg/kg/injection, schedule: Q01DX011 (ip), vehicle: Klucel (hydroxypropylcellulose) (HPC) 107 % of control | dose: 100.0 mg/kg/injection, schedule: Q01DX011 (ip), vehicle: Klucel (hydroxypropylcellulose) (HPC) 109 % of control | dose: 200.0 mg/kg/injection, schedule: Q01DX011 (ip), vehicle: Klucel (hydroxypropylcellulose) (HPC) 100 % of control | dose: 400.0 mg/kg/injection, schedule: Q01DX011 (ip), vehicle: Klucel (hydroxypropylcellulose) (HPC) 102 % of control

CC/C(=C\c1ccccc1)[N+](=O)[O-]
inactive: dose: 12.5 mg/kg/injection, schedule: Q01DX009 (ip), vehicle: saline 96 % of control | dose: 25.0 mg/kg/injection, schedule: Q01DX009 (ip), vehicle: saline 114 % of control and 124 % of control | dose: 50.0 mg/kg/injection, schedule: Q01DX009 (ip), vehicle: saline 123 % of control | [1] 109 % of control | [2] 100 % of control

CS(=O)(=O)OCCCCCCCCCOS(C)(=O)=O
inactive: dose: 33.0 mg/kg/injection, schedule: Q04DX003 (ip), vehicle: saline with Tween-80 104 % of control | dose: 50.0 mg/kg/injection, schedule: Q04DX003 (ip), vehicle: saline with Tween-80 113 % of control

Cc1ccc(S(=O)(=O)N/N=C/C(O)CO)cc1 (centres undefined)
inactive: dose: 3.13 mg/kg/injection, schedule: Q01DX009 (ip), vehicle: other 98 % of control | dose: 6.25 mg/kg/injection, schedule: Q01DX009 (ip), vehicle: other 91 % of control | dose: 12.5 mg/kg/injection, schedule: Q01DX009 (ip), vehicle: other 98 % of control and 101 % of control | [6] 98 % of control | [7] 96 % of control | [3] 99 % of control | [4] 98 % of control | [5] 102 % of control

COC1/C=C/OC2(C)Oc3c(C)c(O)c4c(O)c(c(/C=N/NC5CCCCCCCCCCCCCC5)c(O)c4c3C2=O)NC(=O)/C(C)=C\C=C\C(C)C(O)C(C)C(O)C(C)C(OC(C)=O)C1C (centres undefined)
inactive: dose: 100.0 mg/kg/injection, schedule: Q01DX009 (ip), vehicle: saline with Tween-80 100 % of control | [8] 100 % of control | dose: 200.0 mg/kg/injection, schedule: Q01DX009 (ip), vehicle: saline with Tween-80 95 % of control | dose: 200.0 mg/kg/injection, schedule: Q04DX003 (ip), vehicle: saline with Tween-80 90 % of control | dose: 400.0 mg/kg/injection, schedule: Q01DX009 (ip), vehicle: saline with Tween-80 95 % of control | dose: 400.0 mg/kg/injection, schedule: Q04DX003 (ip), vehicle: saline with Tween-80 90 % of control

CC(=O)O.O=CCO.[C-]#[O+].[C-]#[O+].[C-]#[O+].[C-]#[O+].[Rh].[Rh]
inactive: dose: 25.0 mg/kg/injection, schedule: Q01DX009 (ip), vehicle: Klucel (hydroxypropylcellulose) (HPC) 119 % of control | dose: 50.0 mg/kg/injection, schedule: Q01DX009 (ip), vehicle: Klucel (hydroxypropylcellulose) (HPC) 122 % of control

CC1=CC(=O)[C@@H](O)[C@]2(C)[C@H]3[C@@]4(O)OC[C@]35[C@H]([C@@H](C)[C@H]4O)[C@@H](OC(=O)c3ccccc3)C(=O)O[C@@H]5C[C@@H]12
inactive: dose: 0.03 mg/kg/injection, schedule: Q01DX009 (ip), vehicle: saline with Tween-80 121 % of control | dose: 0.06 mg/kg/injection, schedule: Q01DX009 (ip), vehicle: saline with Tween-80 118 % of control | dose: 0.12 mg/kg/injection, schedule: Q01DX009 (ip), vehicle: saline with Tween-80 122 % of control

Nc1ccccc1SC1CC(=O)N(c2cccc3ccccc23)C1=O (centres undefined)
inactive: dose: 100.0 mg/kg/injection, schedule: Q01DX009 (ip), vehicle: Klucel (hydroxypropylcellulose) (HPC) 118 % of control | dose: 100.0 mg/kg/injection, schedule: Q04DX003 (ip), vehicle: Klucel (hydroxypropylcellulose) (HPC) 104 % of control | dose: 200.0 mg/kg/injection, schedule: Q01DX009 (ip), vehicle: Klucel (hydroxypropylcellulose) (HPC) 118 % of control | dose: 200.0 mg/kg/injection, schedule: Q04DX003 (ip), vehicle: Klucel (hydroxypropylcellulose) (HPC) 100 % of control | dose: 400.0 mg/kg/injection, schedule: Q01DX009 (ip), vehicle: Klucel (hydroxypropylcellulose) (HPC) 100 % of control | dose: 400.0 mg/kg/injection, schedule: Q04DX003 (ip), vehicle: Klucel (hydroxypropylcellulose) (HPC) 90 % of control

C=C/C(C)=C/[C@H](C)C(=O)C[C@H](O)CC1CC(=O)NC(=O)C1
active: dose: 16.5 mg/kg/injection, schedule: Q01DX009 (ip), vehicle: saline with Tween-80 171 % of control | dose: 37.5 mg/kg/injection, schedule: Q01DX009 (ip), vehicle: saline with Tween-80 152 % of control | dose: 75.0 mg/kg/injection, schedule: Q01DX009 (ip), vehicle: saline with Tween-80 180 % of control
inactive: dose: 7.3 mg/kg/injection, schedule: Q01DX009 (ip), vehicle: saline with Tween-80 111 % of control | dose: 11.0 mg/kg/injection, schedule: Q01DX009 (ip), vehicle: saline with Tween-80 121 % of control | dose: 25.0 mg/kg/injection, schedule: Q01DX009 (ip), vehicle: saline with Tween-80 123 % of control and 124 % of control

O=NN1CCCNC1=O
active: dose: 66.0 mg/kg/injection, schedule: Q04DX003 (ip), vehicle: saline with Tween-80 245 % of control
inactive: [8] 116 % of control

CS(=O)(=O)N(CC(=O)NC(Cc1ccccc1)C(=O)O)Cc1ccccc1 (centres undefined) (Ms-[Nphe]-[ξF]-OH)
inactive: dose: 12.5 mg/kg/injection, schedule: Q04DX003 (ip), vehicle: sodium bicarbonate 100 % of control | [6] 114 % of control | dose: 25.0 mg/kg/injection, schedule: Q04DX003 (ip), vehicle: other 94 % of control | dose: 25.0 mg/kg/injection, schedule: Q04DX003 (ip), vehicle: sodium bicarbonate 106 % of control | [7] 100 % of control | dose: 50.0 mg/kg/injection, schedule: Q04DX003 (ip), vehicle: other 103 % of control | dose: 50.0 mg/kg/injection, schedule: Q04DX003 (ip), vehicle: sodium bicarbonate 104 % of control | [3] 114 % of control | dose: 100.0 mg/kg/injection, schedule: Q04DX003 (ip), vehicle: other 106 % of control | dose: 100.0 mg/kg/injection, schedule: Q04DX003 (ip), vehicle: sodium bicarbonate 96 % of control | dose: 200.0 mg/kg/injection, schedule: Q04DX003 (ip), vehicle: other 104 % of control | dose: 200.0 mg/kg/injection, schedule: Q04DX003 (ip), vehicle: sodium bicarbonate 98 % of control | dose: 400.0 mg/kg/injection, schedule: Q04DX003 (ip), vehicle: other 103 % of control | dose: 400.0 mg/kg/injection, schedule: Q04DX003 (ip), vehicle: sodium bicarbonate 90 % of control
